Test results: patent publication US20260374766A1, “METHODS FOR TREATING CANCER” (Antares Therapeutics, Inc., priority 2022, published 2026)

How the values were obtained:
H1299 p53 Y220C = assay: Cell Proliferation Assay (CellTiter-Glo, CTG), H1299 p53 Y220C (NClH1299-inducible p53 Y220C); format: cell-based; details: Homo sapiens, NCI-H1299, 120 h, CellTiter-Glo, H1299 p53 Y220C, 5 days
In short: (§1)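 NClH1299 lines stably transduced with Tet-inducible p53 Y220C or R273H, plus NUGC3, were treated with compound for 5 days at 250-500 cells/well. IC50 derived from CellTiter-Glo luminescent signal after 10 min room-temperature incubation.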

p53 Y220C = p53 Y220C (Homo sapiens, UniProt P04637, Y220C); assay: Luciferase Reporter Assay (Luc), p53 response element, NClH1299 cells with inducible p53 Y220C; format: cell-based; details: luciferase reporter, NClH1299 inducible p53 Y220C, 6 hour; for Emax: 10 uM tool compound as positive control; for AC50: read-out: Luc P53 Y220C AC50
In short: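 Cells were seeded at 5,000 per well and induced with 0.5 ug/mL doxycycline for 24 hours, then exposed to compound for 6 hours. One-Glo reagent was added, plates shaken 5 minutes at room temperature, and luminescence read immediately.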

[1] = target: T1, p53 Y220C mutant protein (amino acid residues 94-293) (Homo sapiens, UniProt P04637, Y220C); assay: Surface Plasmon Resonance (SPR) assay, Kd_kinetic; format: binding; details: SPR, kinetic KD, p53 Y220C; read-out: SPR P53 Y220C KD kinetic
T1 construct: p53 Y220C mutant protein (amino acid residues 94-293)
In short: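 Temperature held at 16 or 20 °C during Biacore 8K runs. Buffer: 50 mM Tris, pH 7.5, 100 mM NaCl, 1 mM DTT, 0.01% Brij35, 0.05% Tween-20, 1% DMSO.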

H1299 p53 R273H = assay: Cell Proliferation Assay (CellTiter-Glo, CTG), H1299 p53 R273H (NClH1299-inducible p53 R273H); format: cell-based; details: Homo sapiens, NCI-H1299, 120 h, CellTiter-Glo, H1299 p53 R273H, 5 days
In short: as §1

NUGC3 p53 Y220C = assay: Cell Proliferation Assay (CellTiter-Glo, CTG), NUGC3 p53 Y220C; format: cell-based; details: Homo sapiens, NUGC-3, 120 h, CellTiter-Glo, NUGC3 p53 Y220C, 5 days
In short: as §1

[2] = target: T1, p53 Y220C mutant protein (amino acid residues 94-293); assay: Thermal Shift Assay (TSA), dTM; format: binding; details: thermal shift; for ΔTm at 100 µM: 100 uM compound, read-out: TSA P53 Y220C dTM (100 uM)
Description: Thermal Shift Assay (TSA) Protocol
5 μM recombinant p53 Y220C mutant protein (amino acid residues 94-293) was incubated with 10 μM or 100 μM compound for 3 hours at 20 °C in buffer containing 20 mM HEPES, pH7.4, 100 mM NaCl, 0.01% Pluronic F-127, and 1% DMSO in the presence of 400-fold diluted Sypro Orange (ThermoFisher Scientific catalog number 4461146), on a 384-well PCR plate (Applied Biosystems catalog number 4483285). The volume was 5 μL/well. The sealed plate was then loaded onto a QuantStudio 7 Flex instrument for melting temperature (TM) measurement. The temperature was increased from 30 °C to […], at a rate of 0.03 °C/second. Data were fit into a Boltzmann two-state model to determine the TM.

Compound	IC50 (H1299 p53 Y220C)	Emax (p53 Y220C)	AC50 (p53 Y220C)	Kd [1]	IC50 (H1299 p53 R273H)	ΔTm at 100 µM [2]	ΔTm at 10 µM ([2]; 10 uM compound, read-out: TSA P53 Y220C dTM (10 uM))	IC50 (NUGC3 p53 Y220C)
COc1cc(S(C)(=O)=O)ccc1NCC#Cc1nc2c(N[C@@H]3CCN(C)C[C@@H]3F)cccn2c1CC(F)(F)F [Example 1, (3S,4R)-3-fluoro-N-(2-{3-[(4-methanesulfonyl-2-methoxyphenyl)amino]prop-1-yn-1-yl}-3-(2,2,2-trifluoroethyl)imidazo[1,2-a]pyridin-8-yl)-1-methylpiperidin-4-amine]	< 750 nM	70 to 80%	750 to 1500 nM	< 10 nM	8000 to 10000 nM	≥ 10 °C	–	750 to 1500 nM
COc1cc(S(C)(=O)=O)ccc1NCC#Cc1nc2c(NC3CCS(=O)(=O)CC3)cccn2c1CC(F)(F)F [Example 4, 4-[(2-{3-[(4-methanesulfonyl-2-methoxyphenyl)amino]prop-1-yn-1-yl}-3-(2,2,2-trifluoroethyl)imidazo[1,2-a]pyridin-8-yl)amino]-1lambda6-thiane-1,1-dione]	> 3000 nM	< 70%	> 3000 nM	10 to 100 nM	≥ 10000 nM	5 to 10 °C	–	1500 to 3000 nM
COc1cc(S(C)(=O)=O)ccc1NCC#Cc1nc2c(N[C@H]3CCN(C)C[C@H]3F)cccn2c1CC(F)(F)F [Example 6, (3R,4S)-3-fluoro-N-(2-{3-[(4-methanesulfonyl-2-methoxyphenyl)amino]prop-1-yn-1-yl}-3-(2,2,2-trifluoroethyl)imidazo[1,2-a]pyridin-8-yl)-1-methylpiperidin-4-amine]	1500 to 3000 nM	70 to 80%	1500 to 3000 nM	10 to 100 nM	≥ 10000 nM	≥ 10 °C	–	1500 to 3000 nM
COc1cc(S(C)(=O)=O)ccc1NCC#Cc1nc2c(N[C@@H]3CCNC[C@@H]3F)cccn2c1CC(F)(F)F [Example 8, (3S,4R)-3-fluoro-N-(2-{3-[(4-methanesulfonyl-2-methoxyphenyl)amino]prop-1-yn-1-yl}-3-(2,2,2-trifluoroethyl)imidazo[1,2-a]pyridin-8-yl)piperidin-4-amine]	750 to 1500 nM	70 to 80%	750 to 1500 nM	< 10 nM	5000 to 8000 nM	≥ 10 °C	–	750 to 1500 nM
CCc1c(C#CCNc2ccc(S(C)(=O)=O)cc2OC)nc2c(N[C@@H]3CCN(C)C[C@@H]3F)cccn12 [Example 15, (3S,4R)—N-(3-ethyl-2-{3-[(4-methanesulfonyl-2-methoxyphenyl)amino]prop-1-yn-1-yl}imidazo[1,2-a]pyridin-8-yl)-3-fluoro-1-methylpiperidin-4-amine]	1500 to 3000 nM	< 70%	1500 to 3000 nM	10 to 100 nM	8000 to 10000 nM	5 to 10 °C	–	1500 to 3000 nM
CCc1c(C#CCNc2ccc(S(C)(=O)=O)cc2OC)nc2c(NC3CCN(C)CC3)cccn12 [Example 16, N-(3-ethyl-2-{3-[(4-methanesulfonyl-2-methoxyphenyl)amino]prop-1-yn-1-yl}imidazo[1,2-a]pyridin-8-yl)-1-methylpiperidin-4-amine]	> 3000 nM	< 70%	> 3000 nM	10 to 100 nM	5000 to 8000 nM	5 to 10 °C	–	> 3000 nM
CCOc1c(C#CCNc2ccc(C(=O)NC)cc2OC)nc2c(N[C@@H]3CCN(C)C[C@@H]3F)cccn12 [Example 17, 4-{[3-(3-ethoxy-8-{[(3S,4R)-3-fluoro-1-methylpiperidin-4-yl]amino}imidazo[1,2-a]pyridin-2-yl)prop-2-yn-1-yl]amino}-3-methoxy-N-methylbenzamide]	> 3000 nM	< 70%	> 3000 nM	100 to 1000 nM	≥ 10000 nM	1 to 5 °C	–	> 3000 nM

Further lines, with some results ahead:

IC50 (H1299 p53 Y220C)	Emax (p53 Y220C)	AC50 (p53 Y220C)	Kd [1]	IC50 (H1299 p53 R273H)	ΔTm at 100 µM [2]	ΔTm at 10 µM ([2]; 10 uM compound, read-out: TSA P53 Y220C dTM (10 uM))	Compound	IC50 (NUGC3 p53 Y220C)
1500 to 3000 nM	< 70%	> 3000 nM	10 to 100 nM	5000 to 8000 nM	≥ 10 °C	–	COc1cc(S(C)(=O)=O)ccc1NCC#Cc1nc2c(NC3CCN(C)CC3)cccn2c1CC(F)(F)F [Example 2, N-(2-{3-[(4-methanesulfonyl-2-methoxyphenyl)amino]prop-1-yn-1-yl}-3-(2,2,2-trifluoroethyl)imidazo[1,2-a]pyridin-8-yl)-1-methylpiperidin-4-amine]	1500 to 3000 nM
1500 to 3000 nM	70 to 80%	1500 to 3000 nM	10 to 100 nM	≥ 10000 nM	≥ 10 °C	–	COc1cc(S(C)(=O)=O)ccc1NCC#Cc1nc2c(NC3CCOCC3)cccn2c1CC(F)(F)F [Example 3, 2-{3-[(4-methanesulfonyl-2-methoxyphenyl)amino]prop-1-yn-1-yl}-N-(oxan-4-yl)-3-(2,2,2-trifluoroethyl)imidazo[1,2-a]pyridin-8-amine]	> 3000 nM
> 3000 nM	80 to 90%	> 3000 nM	10 to 100 nM	≥ 10000 nM	5 to 10 °C	5 to 10 °C	COc1cc(S(C)(=O)=O)ccc1NCC#Cc1nc2c(NC3CCN(CCS(C)(=O)=O)CC3)cccn2c1CC(F)(F)F [Example 5, N-(2-{3-[(4-methanesulfonyl-2-methoxyphenyl)amino]prop-1-yn-1-yl}-3-(2,2,2-trifluoroethyl)imidazo[1,2-a]pyridin-8-yl)-1-(2-methanesulfonylethyl) piperidin-4-amine]	1500 to 3000 nM
1500 to 3000 nM	< 70%	> 3000 nM	10 to 100 nM	5000 to 8000 nM	5 to 10 °C	–	COc1cc(S(C)(=O)=O)ccc1NCC#Cc1nc2c(NC3CCN(C4CC4)CC3)cccn2c1CC(F)(F)F [Example 7, 1-cyclopropyl-N-(2-{3-[(4-methanesulfonyl-2-methoxyphenyl)amino]prop-1-yn-1-yl}-3-(2,2,2-trifluoroethyl)imidazo[1,2-a]pyridin-8-yl)piperidin-4-amine]	1500 to 3000 nM
1500 to 3000 nM	70 to 80%	1500 to 3000 nM	10 to 100 nM	5000 to 8000 nM	≥ 10 °C	–	COc1cc(S(C)(=O)=O)ccc1NCC#Cc1nc2c(NC3CCN(C(C)C)CC3)cccn2c1CC(F)(F)F [Example 9, 1-isopropyl-N-(2-{3-[(4-methanesulfonyl-2-methoxyphenyl)amino]prop-1-yn-1-yl}-3-(2,2,2-trifluoroethyl)imidazo[1,2-a]pyridin-8-yl)piperidin-4-amine]	1500 to 3000 nM
750 to 1500 nM	70 to 80%	1500 to 3000 nM	10 to 100 nM	5000 to 8000 nM	≥ 10 °C	–	COc1cc(S(C)(=O)=O)ccc1NCC#Cc1nc2c(NC3CCN(CC(C)(C)O)CC3)cccn2c1CC(F)(F)F [Example 11, 1-{4-[(2-{3-[(4-methanesulfonyl-2-methoxyphenyl)amino]prop-1-yn-1-yl}-3-(2,2,2-trifluoroethyl)imidazo [1,2-a]pyridin-8-yl)amino]piperidin-1-yl}-2-methylpropan-2-ol]	1500 to 3000 nM
1500 to 3000 nM	70 to 80%	1500 to 3000 nM	10 to 100 nM	≥ 10000 nM	≥ 10 °C	–	COC[C@@H](O)CN1CCC(Nc2cccn3c(CC(F)(F)F)c(C#CCNc4ccc(S(C)(=O)=O)cc4OC)nc23)CC1 [Example 12, (2S)-1-{4-[(2-{3-[(4-methanesulfonyl-2-methoxyphenyl)amino]prop-1-yn-1-yl}-3-(2,2,2-trifluoroethyl)imidazo[1,2-a]pyridin-8-yl)amino]piperidin-1-yl}-3-methoxypropan-2-ol]	750 to 1500 nM
750 to 1500 nM	70 to 80%	1500 to 3000 nM	10 to 100 nM	5000 to 8000 nM	≥ 10 °C	–	COC[C@H](O)CN1CCC(Nc2cccn3c(CC(F)(F)F)c(C#CCNc4ccc(S(C)(=O)=O)cc4OC)nc23)CC1 [Example 14, (2R)-1-{4-[(2-{3-[(4-methanesulfonyl-2-methoxyphenyl)amino]prop-1-yn-1-yl}-3-(2,2,2-trifluoroethyl)imidazo[1,2-a]pyridin-8-yl)amino]piperidin-1-yl}-3-methoxypropan-2-ol]	750 to 1500 nM
